Laboratory results taken from patent US20220348565A1, “PHARMACEUTICAL COMPOUNDS” (SENTINEL ONCOLOGY LIMITED, priority 2019, published 2022).

Key:
[1] = Mouse PK, brain exposure after p.o. dosing; type: in vivo, Male CD-1 mice
Procedure: Atropisomers A-2 and A-3 were evaluated in an in vivo mouse model to determine brain and plasma concentrations following p.o. and i.v. dosing.
Male CD-1 mice were dosed with the compounds of Examples A-2 and A-3, either by i.v. administration (2 mg/kg) or by p.o. administration (10 mg/kg). Eight samples were taken for analysis in the i.v. leg at 2, 10, 30 min, 1, 2, 4, 8, and 24 (for i.v) and 9 samples in the p.o. leg at 15, 30 min, 1, 2, 4, 8, 24, 48 and 72 hrs.
The compounds of Examples A-2 and A-3 were both formulated in 10% DMSO/90% hydroxypropyl-beta-cyclodextrin (20% w/v in water) for i.v. and p.o. dosing. N =3 mice per time point.
Post dosing, terminal blood samples were taken from individual animals and delivered into labelled polypropylene tubes containing anticoagulant (EDTA). The samples were held on wet ice for a maximum of 30 min while sampling of all the animals in the cohort was completed. The blood samples were centrifuged for plasma (4° C., 21100 g for 5 min) and the resulting plasma transferred into corresponding labelled tubes. Terminal brains from each PO dosed animal were excised, rinsed with saline and placed into pre-weighed labelled polypropylene tubes and the samples re-weighed prior to storage.
Quantitative bioanalysis was carried out using liquid chromatography—mass spectroscopy was performed. The results are shown in Tables 14, 15 and 16 below and in FIGS. 12 to 15.

U87MG cells = test: Mitotic phenotype study in U87MG cells; type: cell-based, human; conditions: 0.03 μM, listed as A-2
Procedure: Distinct mitotic phenotypes are induced following inhibition of PLK1 and PLK4 in cells. […] Centriole assembly is controlled by PLK4, with inhibitors inducing a multipolar spindle phenotype due to centrosome defects which results in abnormal cyokinesis (Wong et al., 2015. Science 348(6239); 1155-1160). Cells were plated at 10 000/well in 96-well plates and incubated overnight. The following day atropisomer A-2 stocks in DMSO were diluted in medium then added to cells with a maximum final DMSO concentration on cells of 0.2%. Cells were incubated with the compound for 24 hours then fixed in 3.7% formaldehyde. Cells were permeabilised with 0.1% Triton X-100 then incubated with anti-phospho-histone H3 (Ser10) antibody (Abcam). The cells were washed with PBS then incubated with AlexaFluor 488 labelled goat anti-rabbit IgG (Invitrogen) in the presence of 4 ug/mL Hoechst 33342 (Invitrogen). Cells were washed in PBS then imaged on an Arrayscan VTi HCS instrument using the Target Activation V4 Bioapplication. A user-defined threshold was applied to identify mitotic cells based on the intensity of phospho-histone H3 staining. In a separate study, following the above protocol and using single compound concentrations of 0.03 μM for each of atropisomer A-1 and atropisomer A-2, the frequency of observed mitotic phenotypes in U87MG cells was manually assessed and classified into the following phenotypes: non-congressed chromosomes, multipolar spindles/abnormal cytokinesis, monopolar spindles, normal prometaphase, normal metaphase for each of A-1 and A-2.

U87MG tumours = test: U87MG subcutaneous xenograft model; type: in vivo, Male athymic nude mice; conditions: oral 100 mg/kg on days 1, 4 and 7; day 13
Procedure: (§1) Male athymic nude mice bearing U87MG tumours were given an oral dose of 100 mg/kg of atropisomer A-2 on days 1, 4 and 7 and the tumour volumes were measured over 20 days. Tumour volumes in a control group of tumour-bearing mice, who had received vehicle only at the same time points were also measured.

U87-Luc cells = test: U87-Luc orthotopic xenograft model; type: in vivo, male athymic nude mice; conditions: oral 100 mg/kg on days 1, 4, 7, 10 and 13; Day 15
Procedure: U87-Luc cells were intracerebrally implanted into the brains of male athymic nude mice and tumour growth was monitored by bioluminescent signal. In the treatment group animals were given an oral dose of 100 mg/kg of atropisomer A-2 on days 1, 4, 7, 10 and 13. The control group animals were given vehicle only.

HCT116 xenograft tumours = test: HCT116 subcutaneous xenograft model; type: in vivo, Male athymic nude mice; conditions: oral 100 mg/kg on days 1, 8 and 15; day 20
Procedure: as §1, with “HCT116 xenograft” for “U87MG”, “give” for “given”, “mg/kg” for “mg/kg of”, “8” for “4”, “15” for “7”, “3 weeks.” for “20 days.”

[2] = system: HeLa cells stably expressing a Centrin1-GFP fusion protein; test: Centriole number in Centrin1-GFP HeLa cells; type: cell-based; conditions: 0.02 μM, 72 hours
Procedure: The effects of A-1 and A-2 on centrosome function were therefore investigated further. HeLa cells stably expressing a Centrin1-GFP fusion protein were seeded into 96-well plates overnight. Cells were treated with atropisomer A-1 or atropisomer A-2 (at concentrations of 0.02 μM in DMSO) or DMSO control for 72 hours and then imaged using a fluorescence microscope. Multiple cell fields were captured for each treatment condition, and the images were subsequently analysed manually. Centrin1-GFP specifically marks centrioles as discrete foci, and therefore can be used to quantitate centriole number per cell. Thus, for each treatment condition, 100 cells were analysed and the number of centrioles present in each cell was recorded. The data were then separated into bins (no centrioles, 1 centriole, 2 centrioles, and greater than 2 centrioles) and are shown in FIG. 11.

[3] = mouse, po, brain exposure, p.o. 10 mg/kg, male CD-1 mice

Kp ([1]; male, CD-1, mouse, brain and plasma, 10 mg/kg, brain:plasma, oral dosing in mice, read-out: AUC B:P ratio): 3.3 | Cmax [1, 3]: 693 ng/mL | Tmax [1, 3]: 8 h | half-life ([1]; mouse, po, brain exposure, p.o. 10 mg/kg, male CD-1 mice, read-out: T ½ (converted)): 12.1 h | AUC(0-t) ([1]; mouse, po, brain, p.o. 10 mg/kg, male CD-1 mice, read-out: AUClast brain): 20500 ng·h/mL | brain exposure (in words) ([1]; oral dosing in mice): high brain exposure
SMILES: CN(C)CCNC(=O)c1ccc(-c2ccc(-c3ccc(Cl)cc3)n2-c2ccccc2C(F)(F)F)cc1 (single isomer, unassigned) [Atropisomer A-2, 4-[5-(4-chlorophenyl)-1-[2-(trifluoromethyl)phenyl]pyrrol-2-yl]-N-[2-(dimethylamino)ethyl]benzamide]
cells with abnormal cytokinesis (U87MG cells): 70% | cells with non-congressed chromosomes (U87MG cells): 13% | cells with normal mitotic phenotype (U87MG cells): 17% | tumour volume % T/C (U87MG tumours): 3.85% | tumour bioluminescent signal treated versus control (U87-Luc cells): decrease in tumour signal | TGI (HCT116 xenograft tumours): 60% | PLK4 inhibition phenotypes (centriole number) [2]: exhibits evidence of PLK4 inhibition phenotypes
